Assay results taken from article PMC9917443 (eLife, 2023).
Entries after “also recorded” stand apart in the source; their conditions may differ.

How the values were obtained:
[1] = test system: native GBRs in mouse brain membranes; experiment: [^35S]GTPγS binding in brain membrane preparations
[2] = test system: GB1a/2 receptors in HEK293T cells; experiment: APP17-TMR binding / displacement at GB1a/2 receptors in HEK293T cells; settings: 10 μM peptide
Experimental: Transfected HEK293T cells expressing Flag-GB1a and Flag-GB2 were seeded into 96-well microplates (Greiner Bio-One, Kremsmünster, Austria) at 50,000 cells/well. After 18 hr, peptides were mixed with conditioned medium at the following final concentrations: APP17-TMR (1 µM) with either APP17 (10 µM), sc-APP17 (10 µM), or PBS (vehicle); sc-APP17-TMR (1 µM) in PBS was used as a negative control. After removal of medium, peptide mixes were added to the wells and cells incubated in the dark for 1 hr at room temperature. After removal of the peptides, PBS with MgCl2 and CaCl2 (Sigma-Aldrich) was added to the wells. TMR fluorescence was monitored with a Spark microplate reader (Tecan Group, Männerdorf, Switzerland) using a monochromator (Excitation 544 nm, […] bandwidth; detection […], 25 nm bandwidth). TMR fluorescence was determined after subtraction of the sc-APP17-TMR fluorescence measured at HEK293T cells transfected with pCI plasmid.

[3] = test system: spontaneous neuronal activity in the auditory cortex; experiment: two-photon Ca^2+ imaging of auditory cortex in anesthetized mice; settings: 5 µM perfused over cortex; peptides 60 min, baclofen 15 min
[4] = test system: GB1a/2 receptor-induced Kir3 currents in HEK293T cells; experiment: Kir3 K^+ currents in transfected HEK293T cells (patch-clamp); assay type: cell-based
[5] = test system: mEPSCs in brain slices / cultured hippocampal neurons; settings: cultured hippocampal neurons APP17 250 nM, ref Rice et al., 2019; cited from earlier work
Description: GBRs are composed of a GB1a or GB1b subunit with a GB2 subunit, which generates heterodimeric GB1a/2 and GB1b/2 receptors ([Pin and Bettler, 2016]). GB1a differs from GB1b by the presence of two N-terminal sushi domains (SD1/2). GB1a/2 and GB1b/2 receptors predominantly localize to pre- and postsynaptic sites, respectively ([Vigot et al., 2006]). APP and sAPP bind to SD1 of GB1a ([Schwenk et al., 2016]; [Dinamarca et al., 2019]; [Rice et al., 2019]). Synthetic APP peptides of 9 or 17 amino acid residues, termed APP9 and APP17, are sufficient for binding and inducing a stable conformation in SD ... || GB1a/2 receptors are abundant at axon terminals where they inhibit neurotransmitter release ([Vigot et al., 2006]). […] A GBR antagonist blocked the effect of APP17 on the mEPSC frequency, supporting a GBR-dependent mechanism.

[6] = molecular target: GB1a/2 receptors (Homo sapiens, UniProt O75899+Q9UBS5); experiment: inter-subunit FRET conformational sensor (HA-GB1a-ACP / Flag-SNAP-GB2) in HEK293T cells; settings: for Fig. 2c value, 10mM GABA / Fig. 2c value, Basal: + Vehicle Basal given as 100; for Fig. 2c value, Basal: Basal (no GABA)
Chain of GB1a/2 receptors (Q9UBS5 15-961 limits assumed): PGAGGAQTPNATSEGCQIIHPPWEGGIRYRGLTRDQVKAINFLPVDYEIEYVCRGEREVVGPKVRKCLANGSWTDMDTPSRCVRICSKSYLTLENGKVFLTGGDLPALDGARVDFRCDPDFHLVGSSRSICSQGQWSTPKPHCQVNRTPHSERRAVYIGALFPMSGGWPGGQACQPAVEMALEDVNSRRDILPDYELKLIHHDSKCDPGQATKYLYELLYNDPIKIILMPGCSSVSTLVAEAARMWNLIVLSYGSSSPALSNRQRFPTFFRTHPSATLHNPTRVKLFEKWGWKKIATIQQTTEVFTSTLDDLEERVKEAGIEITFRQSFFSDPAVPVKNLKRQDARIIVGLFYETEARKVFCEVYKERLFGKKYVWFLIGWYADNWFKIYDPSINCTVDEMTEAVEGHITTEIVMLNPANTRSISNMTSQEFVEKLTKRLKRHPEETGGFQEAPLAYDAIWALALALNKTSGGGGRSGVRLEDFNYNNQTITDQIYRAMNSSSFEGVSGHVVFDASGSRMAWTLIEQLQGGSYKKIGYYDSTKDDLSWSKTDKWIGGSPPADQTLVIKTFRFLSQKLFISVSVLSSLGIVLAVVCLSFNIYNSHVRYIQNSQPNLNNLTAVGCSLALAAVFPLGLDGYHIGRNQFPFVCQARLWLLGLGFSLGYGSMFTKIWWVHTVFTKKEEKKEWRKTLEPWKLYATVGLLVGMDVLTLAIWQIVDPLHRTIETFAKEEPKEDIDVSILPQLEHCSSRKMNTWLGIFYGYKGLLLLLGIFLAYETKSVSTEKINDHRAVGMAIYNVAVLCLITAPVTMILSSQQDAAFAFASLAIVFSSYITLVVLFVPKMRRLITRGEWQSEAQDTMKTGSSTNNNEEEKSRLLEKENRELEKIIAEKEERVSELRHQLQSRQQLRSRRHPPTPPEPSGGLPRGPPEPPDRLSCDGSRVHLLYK
Chain of GB1a/2 receptors (O75899 42-941 partner): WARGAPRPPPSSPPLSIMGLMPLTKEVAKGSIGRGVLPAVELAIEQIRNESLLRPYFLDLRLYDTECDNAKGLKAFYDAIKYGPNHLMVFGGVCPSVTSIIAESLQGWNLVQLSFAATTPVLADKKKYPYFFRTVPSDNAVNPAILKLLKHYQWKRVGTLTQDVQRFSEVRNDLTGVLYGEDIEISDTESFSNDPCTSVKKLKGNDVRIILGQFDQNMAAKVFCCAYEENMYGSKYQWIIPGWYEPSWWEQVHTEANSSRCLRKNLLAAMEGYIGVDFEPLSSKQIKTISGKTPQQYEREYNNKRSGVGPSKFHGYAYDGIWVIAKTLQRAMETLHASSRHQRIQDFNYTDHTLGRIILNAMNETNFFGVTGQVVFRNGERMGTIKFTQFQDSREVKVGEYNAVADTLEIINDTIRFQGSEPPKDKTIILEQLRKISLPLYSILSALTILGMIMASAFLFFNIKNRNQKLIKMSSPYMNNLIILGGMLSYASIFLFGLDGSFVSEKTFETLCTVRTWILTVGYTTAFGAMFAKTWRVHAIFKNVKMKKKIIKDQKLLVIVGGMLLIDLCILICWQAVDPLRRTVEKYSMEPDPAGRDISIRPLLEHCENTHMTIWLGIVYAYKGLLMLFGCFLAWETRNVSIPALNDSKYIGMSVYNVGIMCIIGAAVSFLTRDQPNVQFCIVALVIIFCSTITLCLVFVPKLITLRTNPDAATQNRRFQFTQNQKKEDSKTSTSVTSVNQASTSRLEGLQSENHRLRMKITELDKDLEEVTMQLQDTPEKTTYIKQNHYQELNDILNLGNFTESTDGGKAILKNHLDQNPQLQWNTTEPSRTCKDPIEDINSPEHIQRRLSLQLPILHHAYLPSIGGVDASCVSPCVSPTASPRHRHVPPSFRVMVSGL

For Ac-DDSDVWWGGADTDYADG-NH2 [APP17], which “effect on GABA dose-response in [^35S]GTPγS binding (in words)” value ([1]; 1 μM APP17) is on record?
The value was “did not significantly differ from each other and exhibited similar EC50 and Emax values”.

And the “EMax of GABA in presence of peptide” value ([1]; APP17 1 μM, n=8)?
Its value is 1.39.

What about the “EC50 of GABA in presence of peptide” value ([1]; APP17 1 μM, n=8, pH 7.7, 30 μM GDP, 0.2 nM [^35S]GTPγS) of the same substance?
The value was 16.37 µM.

And the Basal ([1]; GABA curve fit, APP17 1 μM, n=8)?
Its Basal is 0.98.

What about the “displacement of 1 μM APP17-TMR from GB1a/2 receptors (in words)” value [2] of the same substance?
Its value is “displaced 1 μM APP17-TMR from GB1a/2 receptors”.

What about the “spontaneous Ca^2+ transients (in words)” value [3] of the same substance?
The value was “no significant effect compared to ACSF”.

And the “GABA-induced Kir3 currents in presence of peptide (in words)” value ([4]; 5 µM GABA)?
The value was “nor did the peptides alter K^+ currents in the presence of 5 µM GABA”.

And the “Kir3 K^+ currents evoked by compound alone (in words)” value ([4]; transfected HEK293T cells)?
The value was “did not trigger K^+ currents”.

And the “mEPSC frequency (in words)” value [5]?
The value was “reduce the frequency of mEPSCs; also recorded: reduced the frequency of miniature excitatory postsynaptic currents (mEPSCs) in brain slices”.

And the “Fig. 2c value, 10mM GABA” value ([6]; 1 µM peptide with 10mM GABA, replicate 2)?
The value was 28.98.

And the “Fig. 2c value, 10mM GABA” value ([6]; 1 µM peptide with 10mM GABA, replicate 3)?
The value was 58.07.

What about the “Fig. 2c value, 10mM GABA” value ([6]; 1 µM peptide with 10mM GABA, replicate 4) of the same substance?
Its value is 49.76.

What about the “Fig. 2c value, 10mM GABA” value ([6]; 1 µM peptide with 10mM GABA, replicate 5) of the same substance?
The value was 60.83.

And the “Fig. 2c value, 10mM GABA” value ([6]; 1 µM peptide with 10mM GABA, replicate 6)?
The value was 55.36.

And the “Fig. 2c value, Basal” value ([6]; 1 µM peptide, replicate 1)?
Its value is 103.3.

And the “Fig. 2c value, Basal” value ([6]; 1 µM peptide, replicate 2)?
The value was 101.

And the “Fig. 2c value, Basal” value ([6]; 1 µM peptide, replicate 3)?
Its value is 107.6.

And the “Fig. 2c value, Basal” value ([6]; 1 µM peptide, replicate 4)?
The value was 115.2.

And the “Fig. 2c value, Basal” value ([6]; 1 µM peptide, replicate 5)?
Its value is 132.7.

And the “Fig. 2c value, Basal” value ([6]; 1 µM peptide, replicate 6)?
The value was 111.9.

And the “Fig. 2c value, 10mM GABA” value ([6]; 10 µM peptide with 10mM GABA, replicate 1)?
The value was 63.47.

What about the “Fig. 2c value, 10mM GABA” value ([6]; 10 µM peptide with 10mM GABA, replicate 2) of the same substance?
Its value is 34.4.

What about the “Fig. 2c value, 10mM GABA” value ([6]; 10 µM peptide with 10mM GABA, replicate 3) of the same substance?
The value was 49.12.

What about the “Fig. 2c value, 10mM GABA” value ([6]; 10 µM peptide with 10mM GABA, replicate 4) of the same substance?
The value was 59.27.

What about the “Fig. 2c value, 10mM GABA” value ([6]; 10 µM peptide with 10mM GABA, replicate 5) of the same substance?
Its value is 68.45.

And the “Fig. 2c value, 10mM GABA” value ([6]; 10 µM peptide with 10mM GABA, replicate 6)?
The value was 59.22.

What about the “Fig. 2c value, Basal” value ([6]; 10 µM peptide, replicate 1) of the same substance?
The value was 120.

What about the “Fig. 2c value, Basal” value ([6]; 10 µM peptide, replicate 2) of the same substance?
Its value is 119.3.

And the “Fig. 2c value, Basal” value ([6]; 10 µM peptide, replicate 3)?
Its value is 127.7.

What about the “Fig. 2c value, Basal” value ([6]; 10 µM peptide, replicate 4) of the same substance?
The value was 117.6.

And the “Fig. 2c value, Basal” value ([6]; 10 µM peptide, replicate 5)?
Its value is 144.4.

What about the “Fig. 2c value, Basal” value ([6]; 10 µM peptide, replicate 6) of the same substance?
Its value is 124.3.

And the “FRET in the presence of 10 mM GABA (in words)” value ([6]; 1 or 10 μM peptide + 10 mM GABA)?
Its value is “no significant differences in FRET”.

What about the “FRET, basal, peptide alone (in words)” value ([6]; 1 or 10 μM peptide without GABA) of the same substance?
Its value is “significantly increased instead of decreased FRET; also recorded: significant increase of FRET”.

And the “effect on GABA potency (in words)” value ([6]; LogEC50 of GABA dose-response)?
Its value is “did not significantly alter GABA potency”.
